Reference: article PMC8469531, “Design, Synthesis, and Biochemical Evaluation of New Triazole Derivatives as Aurora-A Kinase Inhibitors” (Molecules, 2021)
Read-outs that look alike come from different tables or passages of the source.

Key:
[1] = biological target: T1, Aurora-A kinase (Homo sapiens, UniProt O14965); assay: ChEF-based assay (PhosphoSens) of Aurora-A kinase activity
T1 sequence (O14965 1-403): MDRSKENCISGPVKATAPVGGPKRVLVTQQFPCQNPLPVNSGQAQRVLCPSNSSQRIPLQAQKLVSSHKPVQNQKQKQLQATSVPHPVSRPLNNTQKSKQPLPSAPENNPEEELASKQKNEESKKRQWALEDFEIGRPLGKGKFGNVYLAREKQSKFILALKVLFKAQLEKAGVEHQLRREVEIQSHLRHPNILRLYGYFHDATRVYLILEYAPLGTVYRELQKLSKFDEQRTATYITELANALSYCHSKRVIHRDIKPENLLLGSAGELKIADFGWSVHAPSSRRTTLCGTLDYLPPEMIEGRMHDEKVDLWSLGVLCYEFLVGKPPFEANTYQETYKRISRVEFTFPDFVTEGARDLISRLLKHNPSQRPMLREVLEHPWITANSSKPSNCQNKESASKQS
Procedure: The reaction wells were mixed, and the relative fluorescence unit (RFU) data were collected every 3 min for 30 min at 30 °C. The used λEx/Em of the chelated Mg^2+ with the Sox was 360/485 nm.

[2] = tested on: A375 melanoma human tumor xenograft; parameters: method as in PMID 16204078; conditions: A375 melanoma human tumor xenograft model; cited from earlier work
[3] = tested on: DLBC lymphoma cell lines; parameters: method as in PMID 31850205; conditions: cited from earlier work
[4] = tested on: various cancerous cell lines; parameters: method as in PMID 16204078; conditions: cited from earlier work

With “4-((5-amino-1-((3,5-bis(trifluoromethyl)phenyl)sulfonyl)-1H-1,2,4-triazol-3-yl)amino)benzenesulfonamide [Compound 1d]” as the molecule, how does the IC50 ([1]; Mean ± SEM of 3 independent experiments, 1.25 nM Aurora-A kinase, 15 µM ATP, 10 µM CSox-peptide substrate) read?
Its IC50 is 1780 ± 340 nM.

For `Nc1nc(Nc2ccc(S(N)(=O)=O)cc2)nn1S(=O)(=O)c1ccccc1` [Compound 1a, 4-((5-amino-1-(phenylsulfonyl)-1H-1,2,4-triazol-3-yl)amino)benzenesulfonamide], which IC50 [1] is on record?
Its IC50 is 130 ± 60 nM.

And the melting point?
Its melting point is 229 to 231 °C.

Which IC50 [1] does the source give for `Nc1nc(Nc2ccc(S(N)(=O)=O)cc2)nn1S(=O)(=O)c1c(F)cccc1F` [Compound 1b, 4-((5-amino-1-((2,6-difluorophenyl)sulfonyl)-1H-1,2,4-triazol-3-yl)amino)benzenesulfonamide] here?
Its IC50 is 210 ± 20 nM.

Which IC50 [1] does the source give for `Cc1ccc(S(=O)(=O)n2nc(Nc3ccc(S(N)(=O)=O)cc3)nc2N)cc1` [Compound 1c, 4-((5-amino-1-tosyl-1H-1,2,4-triazol-3-yl)amino)benzenesulfonamide] here?
Its IC50 is 230 ± 20 nM.

With `Nc1nc(Nc2ccc(S(N)(=O)=O)cc2)nn1C(=O)c1c(F)cccc1F` [JNJ-7706621] as the molecule, how does the tumor size [2] read?
The tumor size was “significantly reduced the tumor size”.

And the “reversal of resistance to CD37-targeted radioimmunotherapy” value [3]?
The value was “promoted the reversal of resistance”.

And the “growth inhibition of normal cells relative to cancerous cell lines” value ([4]; normal cell growth)?
Its value is “several folds less potent at inhibiting normal cell growth”.

What about the antiproliferative activity ([4]; various cancerous cell lines) of the same molecule?
The antiproliferative activity was “potent antiproliferative activity”.
